Key:
Format in all cases: cell-based, mouse
[1] = test system: neural progenitor cells; assay: Calcium imaging (fluo-4/am) of Ca2+i responses in 1-2 day cultures; conditions: for increase of Ca2+i by purine receptor agonists: 1-2 day cultures; for effect of removal of extracellular Ca2+ on the Ca2+ response to the agonist: extracellular Ca2+ removed
Description: Neuronal cultures were prepared from E16 mice and maintained as earlier described (Nedergaard, M., Science 263:1768-1771 (1994), which is hereby incorporated by reference in its entirety). Cytosine arabinoside (20 μM) was added at 48 hr to eliminate proliferating cells. Neural progenitor cells were isolated from E13 mice as previously described (Morshead et al., Neuron 13:1071-82 (1994); Reynolds et al., Science 255:1707-10 (1992), which are hereby incorporated by reference in their entirety). The forebrains were collected in a Ca/Mg-free Hank's buffered saline solution (HBSS) and dissociated in 0.25% trypsin. The cells were resuspended at 4×10^6 cells/ml in DMEM/F12/N2 containing 10 ng/ml bFGF and 10 ng/ml EGF (Sigma, St. Louis, Mo.). The cells were plated at 4 ml/dish into 100 mm suspension culture plates and incubated at 37° C. in 5% CO2. The cells were passaged 2 to 3 times before use.
To test the idea that purinergic signaling is restricted to undifferentiated neural precursor cells, Ca^2+ responses to ATP were first examined as a function of time after plating either neural stem cells or differentiated neurons. Cultured mouse cortical neurons in near-pure neuronal cultures were loaded with fluo-4/am and exposed to either ATP (100 μM) or K^+ (60 mM). […] The responses to ATP fell by day 3 and were absent 9 days after plating. […] By 30 hours after plating, MAP2-defined neurons expressed substantially less P2Y receptor-immunoreactivity than did neighboring, MAP2^− cells (FIG. 1C). By 5 days, P2Y-immunoreactivity was restricted to GFAP^+ astrocytes.
ATP-induced Ca^2+i increments were inhibited by both suramin (100 μM) and reactive blue (RB; 30 μM), two mechanistically-unrelated inhibitors of purinergic signaling (FIG. 1D).

[2] = test system: neural stem cells; assay: BrdU incorporation assay (mitotic index); conditions: 4 hrs incubation
Description: For the BrdU incorporation assay, the cultures were incubated for 4 hrs in BrdU (Sigma, 10 μg/ml, 4 hrs), fixed and stained with rat monoclonal anti-BrdU (MAS250C, Harlan Sera-lab, Loughborough, UK; 1:200) and Cy3-conjugated goat anti-rat antibodies (Jackson ImmunoResearch, 1:300). Nuclei were visualized by Sytox (Molecular Probes, Inc.), and the mitotic index was calculated as the ratio of BrdU/Sytox positive nuclei. Limiting dilution analysis was performed as previously described (Keyoung et al., Nature Biotechnology 19:843-850 (2001); Uchida et al., Proc. Natl. Acad. Sci. 97:14720-14725 (2000), which are hereby incorporated by reference in their entirety).
Purinergic signaling has long-term effects on proliferation of numerous cell types, including rapidly replicating transformed cell lines (Burnstock, G., Arterioscler Thromb Vasc Biol 22:364-73 (2002); Michoud et al., Am J Respir Cell Mol Biol 27:732-8 (2002); Sauer et al., J Cell Sci 115:3265-73 (2002); Tu et al., Br J Pharmacol 129:1481-9 (2000), which are hereby incorporated by reference in their entirety). To better define the mitogenic effects of P2Y on neural progenitor cells, the mitogenic effects of ATP, its analogs, and its dephosphorylated metabolites were compared. To this end, BrdU incorporation by neural stem cells was quantified after 4 hrs incubation in each treatment.

[3] = test system: neuroepithelial cells / neural spheres; assay: ATP release, luciferin-luciferase bioluminescence
Description: ATP release from living cells were dynamically imaged by chemiluminescence as described in (Arcuino et al., Proc Natl Acad Sci USA 99:9840-5 (2002), which is hereby incorporated by reference in its entirety). Neural spheres were after a light spin resuspended in Ringer's solution and mounted in a temperature controlled Leiden chamber. Luciferase (0.132 mg/ml) and luciferin (0.332 mg/ml) was added to the Ringer solution. After obtaining a baseline recording of 5 minutes duration, the cultures were stimulated by adding an equal volume of Ca^2+-free Ringer solution containing 100 μM UTP. Light production from the luciferin-luciferase reaction was imaged by a liquid nitrogen-cooled CCD camera (VersArray 1300B, Princeton Instruments), using a 20× oil lens (N.A. 0.8, Olympus), 8×8 binning, and two seconds integration. ATP content in samples collected from cultures grown in 24-well tissue culture plates was measured using a Victor2 plate reader (Wallac) (Cotrina et al., Proc. Natl. Acad. Sci. 95:15735-15740 (1998), which is hereby incorporated by reference in its entirety) and normalized to the protein content (BioRad) or to the cell number. A minimum of 8 independent experiments was evaluated (n≧8, most >20). When drugs or serum were used, the standards were adjusted to containing an equivalent amount. […]

Compound	increase of Ca2+i by purine receptor agonists [1]	proliferation (BrdU incorporation) [2]	also measured
Nc1nc(Cl)nc2c1ncn2[C@@H]1O[C@H](COP(=O)(O)OP(=O)(O)OP(=O)(O)O)[C@@H](O)[C@H]1O [2-Cl-ATP, 2-chloro-adenosine triphosphate]	increased Ca^2+i with roughly equal potency	comparable effects	
CSc1nc(N)c2ncn([C@@H]3O[C@H](COP(=O)(O)OP(=O)(O)OP(=O)(O)O)[C@@H](O)[C@H]3O)c2n1 [2-MeSATP, 2-methylthio-adenosine triphosphate]	increased Ca^2+i with roughly equal potency		effect of removal of extracellular Ca2+ on the Ca2+ response to the agonist [1]: did not significantly decrease
Nc1ncnc2c1ncn2[C@@H]1O[C@H](COP(=O)(O)OP(=O)(O)O)[C@@H](O)[C@H]1O [ADP, adenosine diphosphate]	increased Ca^2+i with roughly equal potency	comparable effects	
Nc1ncnc2c1ncn2[C@@H]1O[C@H](COP(=O)(O)CP(=O)(O)O)[C@@H](O)[C@H]1O [AMPCP, α,β-methyl adenosine diphosphate]		potently enhanced	
Nc1ncnc2c1ncn2[C@@H]1O[C@H](COP(=O)(O)OP(=O)(O)OP(=O)(O)O)[C@@H](O)[C@H]1O [ATP, adenosine triphosphate]	increased Ca^2+i with roughly equal potency	increased proliferation in a dose-dependent manner	Ca2+ response ([1]; 100 μM, cultures younger than 2 days in vitro): Transient increments in Ca^2+ were triggered; effect of removal of extracellular Ca2+ on the Ca2+ response to the agonist [1]: did not significantly decrease; concentration at which proliferation peaked [2]: 100 µM
CCNC(=O)[C@H]1O[C@@H](n2cnc3c(N)ncnc32)[C@H](O)[C@@H]1O [NECA]		failed to stimulate proliferation	
O=c1ccn([C@@H]2O[C@H](COP(=O)(O)OP(=O)(O)OP(=O)(O)O)[C@@H](O)[C@H]2O)c(=O)[nH]1 [UTP, uridine triphosphate]	increased Ca^2+i with roughly equal potency	comparable effects	ATP release from neural spheres, bioluminescence imaging ([3]; 100 μM, neural spheres): frequent point-source bursts of light emission; ATP release evoked by purine receptor activation ([3]; neuroepithelial cells, first 2 days in vitro): evoked robust ATP release
Nc1ncnc2c1ncn2[C@@H]1O[C@H](CO)[C@@H](O)[C@H]1O [adenosine]		failed to stimulate proliferation	
Nc1ncnc2c1ncn2[C@@H](C=O)O[C@@H](C=O)COP(=O)(O)OP(=O)(O)OP(=O)(O)O [oxidized ATP, periodate oxidized adenosine 5′-triphosphate]			reduction of ATP-evoked Ca2+ responses ([1]; 300 μM, 1 hr, p=0.4, Student's t test): did not significantly reduce
Nc1ncnc2c1ncn2[C@@H]1O[C@H](COP(=O)(O)CP(=O)(O)OP(=O)(O)O)[C@@H](O)[C@H]1O [αβATP]	failed to evoke Ca^2+ responses		
Nc1ncnc2c1ncn2[C@@H]1O[C@H](COP(=O)(O)OP(=O)(O)OP(O)(O)=S)[C@@H](O)[C@H]1O [γSATP, γ-thio-adenosine triphosphate]	increased Ca^2+i with roughly equal potency	comparable effects	
apyrase		inhibited proliferation	

Reference: patent US7829332B2, “Purines are self-renewal signals for neural stem cells, and purine receptor antagonists promote neuronal and glial differentiation therefrom” (Cornell Research Foundation, Inc., priority 2004, dated 2010)
